Data as given in paper PMC5215716, “A Target-Based Whole Cell Screen Approach To Identify Potential Inhibitors of Mycobacterium tuberculosis Signal Peptidase” (ACS Infectious Diseases, 2016).
Values after ≈ are worked out from the molar mass of the structure shown.

Columns and labels:
[1] = system: M. tuberculosis strain SPAM13C (LepB-UE); test: microbe, parasite or virus in culture; format: cell-based, Mycobacterium tuberculosis; conditions: for MIC: Mycobacterium tuberculosis, 120 h, read-out: LepB-UE MIC; for MIC / LepB-UE MIC: M. tuberculosis strain SPAM13C, OD590 after 5 days at 37 °C, average ± SD of at least two experiments, b = single value; for Change in potency against LepB-UE compared to compound 1: decrease in potency relative to compound 1
[2] = system: wild-type (wt) M. tuberculosis strain; test: microbe, parasite or virus in culture; format: cell-based, Mycobacterium tuberculosis; conditions: […], OD590 after 5 days at 37 °C, average ± SD of at least two experiments, b = single value; for MIC: Mycobacterium tuberculosis, 120 h, read-out: WT MIC
in vitro = format: cell-based, African green monkey; conditions: African green monkey
Description: (§1) Cytotoxicity against African green monkey adult kidney cell (Vero cells) was determined as previously described using CellTiter-Glo reagent.[44] The concentration causing 50% growth inhibition (IC50) was calculated by fitting the inhibition curves using the Levenberg–Marquardt algorithm.

Vero cells = test: in vitro; format: cell-based, African green monkey; conditions: relative to compound 16
Description: as §1

LepB = biological target: T1, LepB (Mycobacterium tuberculosis, UniProt P9WKA1); test: LepB membrane assay (fluorogenic signal peptide cleavage by cell membrane fraction); format: biochemical; conditions: M. tuberculosis H37Rv cell membrane fraction, 2 μM peptide substrate, 4 h at 37 °C
T1 construct: we used purified membrane fractions to develop an in vitro assay for signal peptide cleavage; host or cells: γ-irradiated whole M. tuberculosis H37Rv; Triton X-114 membrane fraction
T1 sequence (P9WKA1 1-294): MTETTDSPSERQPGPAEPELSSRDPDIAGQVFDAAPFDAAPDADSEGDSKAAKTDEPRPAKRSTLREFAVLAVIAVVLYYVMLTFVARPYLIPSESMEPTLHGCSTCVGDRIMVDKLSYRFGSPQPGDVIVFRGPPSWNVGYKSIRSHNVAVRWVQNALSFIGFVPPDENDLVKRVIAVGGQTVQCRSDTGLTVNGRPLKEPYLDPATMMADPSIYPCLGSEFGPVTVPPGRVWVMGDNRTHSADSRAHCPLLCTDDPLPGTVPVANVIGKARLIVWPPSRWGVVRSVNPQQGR

SMILES | MIC [1] [µM] | MIC [2] [µM] | CC50 (in vitro) [µM] | Decrease in selectivity compared to 16 (Vero cells) [fold] | IC50 (LepB) [µM] | LepB-UE MIC [1] [µM] | WT MIC [2] [µM] | Change in potency against LepB-UE compared to compound 1 [1]
COc1ccc([N+](=O)[O-])cc1/C=N/NC(=N)c1ccccn1 [Compound 33] | > 200 | > 200 | > 100 | 15 | – | – | – | –
N=C(N/N=C/c1cccc([N+](=O)[O-])c1)c1ccccn1 [Compound 34] | 106 (≈ 28.5 µg/mL) | > 200 | > 100 | 15 | – | – | – | –
COc1ccc(CC(=O)N/N=C(\C)c2ccccn2)cc1OC [Compound 36] | 26 ± 1 (≈ 8.15 µg/mL) | 53 ± 2 (≈ 16.6 µg/mL) | 12 | – | > 200 | – | – | –
C/C(=N\NC(=O)C1CCCN(S(=O)(=O)c2ccccc2)C1)c1ccccn1 (stereo not shown) [Compound 38] | 3.5 to 15 (≈ 1.35 to 5.8 µg/mL) | 17 ± 5 (≈ 6.57 µg/mL) | 9.5 | – | 180 | 4.9 ± 0.2 | – | –
C/C(=N\NC(=O)c1ccoc1C)c1ccccn1 [Compound 39] | 2 to 2.5 (≈ 0.487 to 0.608 µg/mL) | < 10 | 3.3 | – | > 200 | 2.5 ± 0.2 | 5.5 ± 1.4 | –
C/C(=N\NC(=O)C1CC1)c1ccccn1 [Compound 40] | – | 42 ± 15 (≈ 8.54 µg/mL) | 75 | – | > 200 | 15 ± 1 | – | –
C/C(=N\NS(=O)(=O)c1ccccc1)c1ccccn1 [Compound 42] | 48 (≈ 13.2 µg/mL) | 94 (≈ 25.9 µg/mL) | > 100 | – | 34 | – | – | 16 fold
Cc1cc(C)nc(-n2nc(C)cc2C)n1 [Compound 43] | 48 ± 2 (≈ 9.71 µg/mL) | 115 ± 23 (≈ 23.3 µg/mL) | > 100 | – | > 200 | – | – | –
Cc1cc(C)nc(-n2nc(C)c(Oc3ccccc3O)c2C)n1 [Compound 44] | 95 ± 7 (≈ 29.5 µg/mL) | > 200 | > 100 | – | > 200 | – | – | –
CC1=NN(c2nc(C)cc(C)n2)C(=O)C1C (stereo not shown) [Compound 46] | 90 ± 28 (≈ 19.6 µg/mL) | > 200 | > 100 | – | > 200 | – | – | –
Cc1cc(C)nc(-n2nc(C)c(Cc3ccccc3C)c2O)n1 [Compound 47] | 61 ± 7 (≈ 18.8 µg/mL) | > 200 | > 100 | – | > 200 | – | – | –
Cc1cc(C)nc(NNC(=O)c2ccccn2)n1 [Compound 57] | 3.5 to 15 (≈ 0.851 to 3.65 µg/mL) | 25 (≈ 6.08 µg/mL) | 32 | – | 64 | 3.9 ± 1.3 | 25 ± 4 | activity similar to that of 1
